Experimental findings from US20260021098A1, “METHODS OF TREATMENT OF JAK INHIBITION RESPONSIVE CONDITIONS WITH DEUTERATED JAK INHIBITORS” (Sun Pharmaceutical Industries, Inc., priority 2024, published 2026) are described below.

A short description of this series: Drug-drug interaction study of Compound (I) and itraconazole, plasma concentration data. Conditions: 12 mg Compound (I) with 200 mg itraconazole (Test), healthy volunteers. The format is in vivo, human.

Molecule `[2H]C1([2H])C([C@@H](CC#N)n2cc(-c3ncnc4[nH]ccc34)cn2)C([2H])([2H])C([2H])([2H])C1([2H])[2H]` [Compound (I), (R)-3-(4-(7H-pyrrolo[2,3-d]pyrimidin-4-yl)-1H-pyrazol-1-yl)-3-(cyclopentyl-2,2,3,3,4,4,5,5-d8) propanenitrile] showed a t1/2 of 4.62 h.
